Results on one compound are retold here after patent publication US11559528B2, “BACE1 inhibition for the treatment of cancer” (The Cleveland Clinic Foundation, priority 2019, dated 2023).

Each structure is given as a SMILES string. “Also recorded” adds a separate entry of the source.

The test system of experiment [1] is iPSC-derived M2 macrophages. In words: Fluorescent phagocytosis assay, iPSC-derived M2 macrophages against lung ADC cells (H1002). Details: dose or concentration left out as unconfirmed. To be noted: MK-8931 two days, p<0.01. The experiment is classed as cell-based, human. The source says: FIG. 10, panels A-C. MK-8931 Treatment Promotes Phagocytosis of iPSC-derived M2 Macrophages against Human Lung ADC Cancer Cells. (A) Immunofluorescent analysis of macrophage marker expression in iPSC-derived M2 macrophages. The iPSC-derived M2 macrophages (GFP+) and the matched iPSCs (GFP+, control) were stained with specific antibodies against IBA1 (total macrophage marker, in red) and FIZZ1 (M2 macrophage marker, in red) and then counterstained with DAPI (in blue). […] (B and C) In vitro macrophage phagocytosis assay showing that the BACE1 inhibitor MK-8931 promoted phagocytosis of the iPSC-derived macrophages against human lung ADC cancer cells. […] Scale bars represent 3 μM. […]
In this assay, we detected macrophage phagocytosis as fluorescent inclusion bodies of the cancer cells (tdTomato^+) within macrophages (GFP^+). […] Thus, potential small molecules that can activate macrophages (GFP*) to phagocytize glioma cells (tdTomato*) could be detected under a fluorescent microscope during the screening (FIG. 1C).
To screen for potential small molecules activating phagocytosis of iPSC-derived M2 macrophages against human cancer cells, GFP^+ iPSC-derived M2 macrophages (5×10^4 cells) were seeded in each well of 24-well plates and treated by small molecules for two days. […] The phagocytosis was measured as the number of inclusion bodies of cancer cells (in red) within macrophages (in green).

The next experiment concerns GBM xenografts (T387). The experiment can be described thus: Intracranial GBM xenografts from T387 glioma stem cells. The class given is in vivo, mouse. From the text:
FIG. 13, panels A-C. BACE1 Inhibition by MK-8931 Converts M2 TAMs into M1 Macrophages in GBM Xenografts. (A and B) Density analysis of M2 TAMs by immunofluorescent staining of the M2 TAM marker (CD163 or FIZZ1) and the total TAM marker IBA1 and in GBM xenografts (T387) treated with MK-8931 or vehicle control. GBM xenografts were established by implantation of glioma stem cells (T387) through intracranial injection. […] Representative immunofluorescent images (A) showing M2 TAMs (CD163′ or FIZZ1^+, in red) and total TAMs (IBA1^+, in green) in the MK-8931-treated or control GBM xenografts. […] (C and D) Density analysis of M1 TAMs by immunofluorescent staining of the M TAM marker (HLA-DR or CD11c) and the total TAM marker IBA1 and in GBM xenografts (T387) treated with MK-8931 or vehicle control. […] Representative immunofluorescent images (C) showing M1 TAMs (HLA-DR^+ or CD11c^+, in red) and total TAMs (IBA1^+, in green) in the MK-8931-treated or control GBM xenografts. […] Scale bars represent 3 μM. Ctl: Control; MK: MK-8931.
(A-C) A preclinical trial of MK-8931 for GBM treatment in GSC-derived xenograft models. […] When humane endpoints occur, mouse was anesthetized and brain bearing tumor was harvested. Representative bioluminescent images (A) of intracranial GBM xenografts treated with MK-8931 or the vehicle control on day 7 (before treatment), day 17 and day 27 (treatment for 10 and 20 days) are shown. […] (D and E) In vivo phagocytosis of TAMs against human glioma cells in GBM xenografts treated with MK-8931 or the vehicle control. […] Representative images (D) showing in vivo TAM phagocytosis as the inclusion body of a glioma cell (TRA-1-85+, in red) within a TAM (IBA1^+, in green) in the MK-8931 treated GBM xenografts but not in the control tumors. […] (F and G) Detection of apoptosis by immunofluorescent staining of cleaved caspase-3 the GSC-derived xenografts treated with MK-8931 or the vehicle control. […] (H and I) Vessel density analysis by immunofluorescent staining of CD31 in the GSC-derived xenografts treated with MK-8931 or the vehicle control.

The test system of experiment [2] is GBM xenografts derived from T4121 GSCs. In words: MK-8931 combined with low dose irradiation in T4121 GBM xenografts.
Method: Glioma stem cells (T4121 GSCs) expressing luciferase were transplanted into mouse brains through intracranial injection to establish orthotopic GBM xenografts. Irradiation (2 Gy) was performed on Day 8 and Day 16. […] Representative bioluminescent images (B) at day 7 (before treatment) and day 15 (treatment for one week) are shown. […] Data are shown as mean±SEM. * p<0.05, ** p<0.01, * ** p<0.001, and NS (not significant)≥0.05 as indicated; Student's t-test. Ctl: Control; IR: Irradiation. […] Data are shown as mean±SEM. Log-rank analysis was used to assess the significance. Significances were shown as indicated. Ctl: Control; IR: irradiation.
Frozen xenograft sections were co-immunostained with specific antibodies against IBA1 (in green) and CD163 (in red) or HLA-DR (in red) and counterstained with DAPI (in blue). Representative immunofluorescent images showing the staining of IBA1 and the M2 TAM marker CD163 (A) or IBA1 and the M1 TAM marker HLA-DR (B) in the GBM xenografts. […] (D and E). […] Frozen xenografts sections were immunostained with a specific antibody against cleaved caspase-3 (in green) and counterstained with DAPI (in blue). […] Data are shown as mean±SEM from at least 5 images of 3-5 mice. * p<0.05 and ** p<0.01; Student's t-test. Scale bar represents 3 μM. Ctl: Control; IR: Irradiation; CC-3: Cleaved caspase-3.
Seven days after the implantation, IVIS was performed twice per week to monitor the tumor growth under the Spectrum CT Imaging System (PerkinElmer) before and after treatment. […] Mouse brains bearing the tumors were collected for immunofluorescent, histochemical and histological analyses.
Irradiation (IR) was performed with the Pantek X-ray irradiator (once per week) at low dose (2 Gy). To protect the mice and limit the side effect of irradiation, anesthetized mice were covered by a lead plate and only the tumor implantation sites were exposed to the fractioned radiation. Mice were sacrificed at the indicated time points or upon the appearance of the neurological signs. […] Only animals with accidental death (for example, due to infection or intracranial injection) were excluded from the data analysis.
Primary antibodies were added to the sections or cells and incubated overnight at 4° C. […] After the incubation of the primary antibodies, the sections or cells were washed three times with cold PBS for five minutes each and then incubated with the secondary antibodies for one hour at room temperature. […] Finally, images were captured by a fluorescence microscopy (Leica DM4000) and further analyzed with ImageJ software.
[3] abbreviates: 30 mg/kg once daily oral gavage two weeks, p<0.001.
[4] abbreviates: 30 mg/kg once daily oral, p<0.01.
Where [5] appears, read: 30 mg/kg once daily oral, p<0.05.
Setting [6] is: IR 2 Gy on Day 8 and Day 16 plus MK-8931 30 mg/kg once daily oral from Day 9, 30 mg/kg.

Regarding `CN1C(N)=N[C@](C)(c2cc(NC(=O)c3ccc(F)cn3)ccc2F)CS1(=O)=O` [MK-8931], in experiment [1], the “phagocytosis of iPSC-derived macrophages against human lung ADC cancer cells” value is “potently induced phagocytosis of iPSC-derived macrophages”. For the same compound, in the experiment with GBM xenografts (T387) (setting [3]), the “density of M1 TAMs (HLA-DR+/IBA1+ or CD11c+/IBA1+)” value is “significantly increased density of M1 TAMs” and the “density of M2 TAMs (CD163+/IBA1+ or FIZZ1+/IBA1+)” value is listed as “significantly reduced density of M2 TAMs”. Besides, the “tumor growth (mean bioluminescence)” value with GBM xenografts (T387) (30 mg/kg once daily oral, day 7, 17 and 27) is “Suppressed GBM Tumor Growth”. In the experiment on GBM xenografts (T387) (30 mg/kg once daily oral, log-rank p<0.05), the “survival (Kaplan-Meier)” value is “significantly extended the survival of animals bearing the GBM xenografts”. Also, in the experiment with GBM xenografts (T387) (setting [4]), the “apoptosis (cleaved caspase-3+ cells)” value is “significantly increased apoptosis”, the “in vivo TAM phagocytosis (inclusion bodies)” value is recorded as “promoted TAM phagocytosis” and the “proliferative cells (Ki-67+)” value is on record as “significantly reduced proliferative cells”. In the experiment with GBM xenografts (T387) (setting [5]), the “GSC population (SOX2+ cells)” value is listed as “significant reduced GSCs” and the “vessel density (CD31)” value is “significantly reduced vessel density”. Also, in experiment [2] (setting [6]), the “survival (Kaplan-Meier), IR plus MK-8931” value is “synergized with MK-8931 treatment to extend survival of the tumor-bearing animals; also recorded: longest survival extension among four experimental groups” and the “tumor growth (mean bioluminescence), IR plus MK-8931” value was “significantly synergized with MK-8931 treatment to inhibit GBM tumor growth; also recorded: strongest inhibition on GBM growth”. Besides, the “TAM subtype (CD163+ M2 vs HLA-DR+ M1), IR plus MK-8931” value in experiment [2] (IR (2×2 Gy) plus MK-8931) is “effectively converted M2 TAMs (CD163+) into M1 macrophages (HLA-DR^+)”. Also, the “apoptosis (fraction of cleaved caspase-3+ cells), IR plus MK-8931” value in experiment [2] (IR (2×2 Gy) plus MK-8931 30 mg/kg, mean±SEM) turned out to be 25.9±3.1%. Also, the “apoptosis (fraction of cleaved caspase-3+ cells), MK-8931 treatment alone” value in experiment [2] (MK-8931 30 mg/kg alone, mean±SEM) is 10.4±0.9%.
